{"source": "patent US20240199572A1", "about": "“COMPOUNDS, COMPOSITIONS, AND METHODS FOR TREATING TYPE 2 DIABETES AND DEMENTIA” (THE BOARD OF TRUSTEES OF THE UNIVERSITY OF ILLINOIS, priority 2021, published 2024)", "key": {"PPARγ": {"target": "T1, PPARγ (Homo sapiens, UniProt P37231)", "T1 construct": "purchased Thermo Fisher Scientific", "T1 sequence (P37231 232-505 limits assumed)": "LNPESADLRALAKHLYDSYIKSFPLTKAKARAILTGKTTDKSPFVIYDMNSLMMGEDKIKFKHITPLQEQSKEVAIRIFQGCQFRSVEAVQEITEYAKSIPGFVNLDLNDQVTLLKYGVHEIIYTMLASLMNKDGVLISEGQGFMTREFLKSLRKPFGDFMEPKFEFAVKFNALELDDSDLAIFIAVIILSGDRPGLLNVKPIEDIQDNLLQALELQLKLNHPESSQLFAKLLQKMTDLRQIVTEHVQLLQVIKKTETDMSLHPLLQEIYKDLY", "assay": "LanthaScreen TR-FRET coactivator assay PPARγ (antagonism of pioglitazone)", "format": "biochemical", "procedure": "TR-FRET Receptor Binding Assays. LanthaScreen” TR-FRET coactivator assay kits for LXRβ (Thermo Fisher Scientific) and PPARγ (Thermo Fisher Scientific) were performed according to manufacturer instructions using low-binding black 384-well plates and Synergy Neo2 plate reader. For the PPARγ assay, standardization was first performed with control agonist (pioglitazone), then run in two antagonist assays: dose-response of pioglitazone with or without a single concentration of CL2-57, and dose-response of CL2-57 cotreated with a single concentration (500 nM) of pioglitazone. Each compound dose was performed in quadruplicate on each plate, and each experiment was performed in triplicate."}, "[1]": {"test_system": "Nuclear hormone (NHR) receptors", "assay": "All β-gal nuclear hormone receptor (NHR) screens", "format": "cell-based", "procedure": "Receptor Binding Assays. Nuclear hormone (NHR) assays were performed by DiscoverX (Fremont, CA) on their NHR-Scan platform of cell-based protein-protein interaction assays. This platform uses a […] reporter that activates upon interaction of full-length receptor protein with steroid coactivator receptor peptides. In agonist mode, activity of CL2-57 at 10 μM was compared to maximal activity of published positive control agonists; in antagonist mode, reduction in activity with 10 μM CL2-57 from that observed at […] of published agonists was quantified."}, "LXRβ": {"target": "T2, LXRβ (Homo sapiens, UniProt P55055)", "T2 construct": "purchased Thermo Fisher Scientific", "T2 sequence (P55055 212-460 limits assumed)": "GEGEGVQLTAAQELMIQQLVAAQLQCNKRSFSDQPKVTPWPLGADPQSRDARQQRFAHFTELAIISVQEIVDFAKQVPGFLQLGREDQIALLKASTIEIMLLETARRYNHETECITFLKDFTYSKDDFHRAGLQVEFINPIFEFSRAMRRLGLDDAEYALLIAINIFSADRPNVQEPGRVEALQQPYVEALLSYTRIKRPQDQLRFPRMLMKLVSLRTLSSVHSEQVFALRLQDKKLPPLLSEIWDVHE", "assay": "LanthaScreen TR-FRET coactivator assay LXRβ", "format": "biochemical", "method": "TR-FRET Receptor Binding Assays. LanthaScreen” TR-FRET coactivator assay kits for LXRβ (Thermo Fisher Scientific) and PPARγ (Thermo Fisher Scientific) were performed according to manufacturer instructions using low-binding black 384-well plates and Synergy Neo2 plate reader. […] Each compound dose was performed in quadruplicate on each plate, and each experiment was performed in triplicate."}, "ABCA1 mRNA": {"test_system": "ABCA1 mRNA", "assay": "ABCA1 mRNA - HepG2 (qRT-PCR)", "format": "cell-based, human", "conditions": "Homo sapiens; ABCA1 mRNA-HepG2 assay (Table 7)", "text": "qRT-PCR. For cell samples, treated cells were lysed with RLT plus lysis buffer (Qiagen). RNA was isolated with Qiagen RNEASY® Plus columns per manufacturer instructions, then reverse-transcribed to cDNA using […]® III Reverse Transcriptase (200 U/μL, Invitrogen) per supplier protocol. qPCR experiments were either performed with TAQMAN® gene expression master mix (Invitrogen) on a StepOne™ qPCR instrument or with […]® SYBR® Green SuperMix (Quanta Biosciences) on CFX Connect™ Real-Time PCR Detection System (BioRad), with fold-change quantified by ΔΔCt. For animal samples, 100 mg tissue was homogenized in 1 mL acid-guanidinium-phenol based reagent sold under the tradename TRIZOL® (Ambion), mixed vigorously in chloroform, and separated by centrifugation. Aqueous layer containing RNA was added to Qiagen RNEASY® Plus column; remaining stops were as described above for cell lysates."}, "E3/4FAD mice": {"test_system": "E3/4FAD mice", "assay": "E3/4FAD (EFAD) mice treated with CL3-3", "format": "in vivo, mouse", "procedure": "A longer-term study was conducted in EFAD mice, which express the same five human AD mutations as 5×FAD mice and have also undergone targeted replacement of the mouse Apoe gene with one of the human APOE alleles: ε2, ε3, or ε4. In this study, EFAD mice with heterozygous ε3/ε4 alleles (E3/4FAD) were treated from 4 months of age until 6 months of age with CL3-3 (100 mg/kg/day in hydrogel replacement of drinking water) or vehicle.\nMultiple readouts of AD-related pathology were conducted with subsets of these mice. Brain regions were first analyzed via ELISA for levels of soluble, oligomeric Aβ (oAβ), which is hypothesized to be the toxic form of amyloid that underlies downstream pathology and clinical presentation associated with AD. In E3/4FAD mice, oAβ levels decreased in the hippocampus in male mice and in the cerebral cortex in female mice. Treatment with CL3-3 also was synaptoprotective in cerebral cortex regions, particularly in male mice. Expression of synaptic proteins drebrin and PSD95 were increased in male E3/4FAD mice treated with CL3-3, as determined by western blot analysis.\nThe remaining subset of brain hemispheres from the treated E3/4FAD mice were fixed and analyzed by staining with thioflavin S (Thio-S). Thio-S is a fluorescent dye that binds to abnormally folded protein aggregates (i.e., amyloid)."}, "ABCA1 [2]": {"test_system": "ABCA1", "assay": "ABCA1-linked luciferase assay in HepG2 cells", "format": "cell-based", "conditions": "Homo sapiens; HepG2 liver cells; Example 2, compounds active in ABCA1-Luc assay; read-out: EC50 in HepG2 liver cells", "procedure": "Luciferase. HepG2 cells (RRID:CVCL 0027) purchased from ATCC and used without further validation were stably transfected with pGreenFire1-LXRE-in-ABCA1 plasmid, which contains the ABCA1 promoter sequence linked to a luciferase response element, then selected over multiple generations with puromycin and frozen in liquid N2. For assays, transfected cells were plated 24 hours in medium (Gibco) containing charcoal-stripped serum (Gemini), followed by a 24-hour treatment. Cells were lysed with passive lysis buffer (Promega), frozen at −80° C. for 15 minutes, and shaken at room temperature for 2 hours before quantification with luciferase assay system (Promega) on a Synergy Neo2 plate reader."}, "ABCA1 [3]": {"test_system": "ABCA1", "assay": "ABCA1 firefly reporter assay in CCF-001 cells", "format": "cell-based", "conditions": "ABCA1 firefly reporter assay in CCF-001 cells (Table 8)"}, "5×FAD mice": {"test_system": "5×FAD mice", "assay": "5×FAD mice treated with CL3-3", "format": "in vivo, mouse", "conditions": "female 5×FAD mice, 10 mg/kg PO daily, 10 days", "procedure": "To evaluate preclinical efficacy, CL3-3 was studied in 5×FAD mice. […] Female 5×FAD mice (JAX) at 16 weeks of age were treated for 10 days with either CL3-3 (10 mg/kg PO gavage daily) or vehicle. Upon completion of treatment, mouse whole brain hemispheres were analyzed for mRNA expression levels of pro-inflammatory markers including CCL2, CCL3, CCL5 CXCL10, IL-6, COX2 and NOS2. Plasma from the same mice was analyzed."}, "CD1 mice": {"test_system": "CD1 mice", "assay": "CD1 mice, three daily p.o. treatments, LXR agonist adverse effects", "format": "in vivo, mouse", "conditions": "10 mg/kg p.o., three days", "text": "Neutrophil Counts. […] After final dose, blood samples were run on an Advia 120 analyzer (Bayer) for neutrophil counts."}}}
{"smiles": "CCOc1ccc(N(C)S(=O)(=O)c2cc(Cl)sc2C(=O)Nc2cccc(C(=O)O)c2)cc1OCC", "note": "[CL2-129, 3-(5-Chloro-3-(N-(3,4-diethoxyphenyl)-N-methylsulfamoyl)thiophene-2-carboxamido)benzoic acid]", "values": [{"measurement": "Activity in PPARγ TR-FRET binding assay", "setting": "PPARγ", "result": "inactive"}, {"measurement": "Activity in all of the β-gal screens", "setting": "[1]", "result": "inactive"}, {"measurement": "Activity in LXRβ TR-FRET binding assay", "setting": "LXRβ", "result": "inactive"}]}
{"smiles": "CCOC(=O)c1cc(Cl)cc(NC(=O)c2sc(Cl)cc2S(=O)(=O)N(C)c2ccc(OCC)c(OC)c2)c1", "note": "[CL3-3, Ethyl 3-chloro-5-(5-chloro-3-(N-(4-ethoxy-3-methoxyphenyl)-N-methylsulfamoyl)thiophene-2-carboxamido) benzoate]", "values": [{"measurement": "EC50", "setting": "ABCA1 mRNA", "result": 0.3, "unit": "µM"}, {"measurement": "% area stained by Thio-S", "setting": "E3/4FAD mice; all measured brain regions, males and females", "result": "decreased"}, {"measurement": "Expression of synaptic proteins drebrin and PSD95", "setting": "E3/4FAD mice; male E3/4FAD mice, western blot", "result": "increased"}, {"measurement": "EC50", "setting": "ABCA1 [2]", "result": 0.3, "unit": "µM"}, {"measurement": "EC50", "setting": "ABCA1 [3]", "result": 0.099, "unit": "µM"}, {"measurement": "Brain mRNA levels of inflammatory markers (CCL2, CCL3, CCL5, CXCL10, IL-6, COX2, NOS2)", "setting": "5×FAD mice", "result": "reduced"}, {"measurement": "Circulating TG levels", "setting": "5×FAD mice", "result": "not significantly altered"}]}
{"smiles": "O=S(=O)(c1ccccc1)N(CC(F)(F)F)c1ccc(C(O)(C(F)(F)F)C(F)(F)F)cc1", "note": "[Compound T0901317, reference compound]", "values": [{"measurement": "Circulating neutrophil levels", "setting": "CD1 mice", "result": "reduced"}, {"measurement": "Plasma TG", "setting": "CD1 mice", "result": "increased"}]}
